Source: patent publication US5821353A, “DNA encoding 1,3 beta-D glucan synthase subunits” (Merck & Co., Inc., priority 1996, dated 1998)
In brackets after ≈: the same amount, converted by molar mass. Read-outs that look alike come from different tables or passages of the source. *1 amine or outer side, *2 acyl side, *3 side chain or, on linkers, in order; H or OH if unused. Where a SMILES comes first, the peptide text is derived from it. Bridges are numbered along the chain shown (N, C = ends). [ ]: non-standard residue; d: D form. The star is where a group is joined. Orn(4R-OH,5R-OH) = O=C([C@H](C[C@@H](O)[C@@H](O)N[*:3])N[*:1])[*:2]; hTyr(3S-OH,4S-OH) = N[C@H](C(=O)O)[C@H](O)[C@@H](O)c1ccc(O)cc1; Pro(3S-OH,4S-Me) = C[C@H]1CN[C@H](C(=O)O)[C@H]1O; Benzoyl(4-octyloxy) = CCCCCCCCOc1ccc(C(=O)*)cc1; Hyp = O=C(O)[C@@H]1C[C@@H](O)CN1

Assays:
[1] = test system: S. cerevisiae R560-1 / R560-1C (fks1-2); test: liquid MIC assay of resistant clone; type: cell-based, Saccharomyces cerevisiae
Protocol: Strain W303-1A was transformed by the spheroplast method (MYG) with yeast genomic libraries obtained from D. Botstein (1982. Cell, 28:145-154). Transformants selected on uracil dropout medium were pooled and stored at -80° C. in 20% glycerol. After determining the titer (colony forming units(CFU)/ml), aliquots of the stocks were spread at .congruent.5×10^3 CFU per plate onto uracil dropout medium containing the semisynthetic echinocandin L-733,560 at 0.5 mcg/ml or 1.25 mcg/ml. This concentration of L-733,560 is sufficient to select for resistant clones. Twenty-seven drug resistant colonies were isolated. […] Briefly, L-733,560 was serially diluted across the wells of a sterile microtiter plate such that the concentration in each row ranged from 16 to 0.03 mcg/ml in 2-fold increments after an equal volume of a cell suspension in liquid uracil dropout medium was added. After 24 h at 30° C., plates were read in a spectrophotometer at a wavelength of 600 nm, and the percent of control growth in each well (relative to a no-drug control well) was calculated. […]
Because this strain was isolated as a transfornant from the genomic library, it was expected that resistance would be due to the gene residing on the plasmid contained in R560-1. […] R560-1C was mated to the wild type strain W303-1B, sporulated, dissected, and the sensitivity to L-733,560 quantitated by liquid MIC assay. […]

[2] = test system: S. cerevisiae YFK0931-07B; test: MIC assay; type: cell-based; conditions: Saccharomyces cerevisiae, YFK093107B, 42 h
Protocol: (§1) The sensitivities of pcr1(fks2-1) fks1-1 and pcr1(fks2-1) FKS1 strains to L-733,560, L-636,947 (Aculeacin), and L-687,781 (Dihydropapulocandin) were determined in MIC assays. Briefly, strains were grown to stationary phase in 5.0 ml of liquid YPAD medium. MY2256 precultures were grown in liquid YPAD10Ca. MIC assays were performed in flat well microtiter plates in triplicate. Each well of the microtiter plate was filled with 100 mcL of YPAD medium. To the first well, 100 mcL of a 4× solution of drug in YPAD medium was added. To serve as a control, a stock solution of […] of YPAD was made. 100 mcL of this solution was added to the initial well for strains grown in the presence of solvent but the absence of drug. Two-fold serial dilutions of the drug were performed down the plate.
(§2) Cultures were diluted to 5×10^5 cells/ml in YPAD (1 OD660 =3.3×10^7 cells/ml). 100 mcL of diluted culture was added to each well, resuspended, and incubated at 28° C. After 42 hours, cultures were resuspended and cells densities measured in an SLT Laboratories 340 ATTC microtiter plate reader.

[3] = test system: S. cerevisiae MY2256; test: MIC assay; type: cell-based; conditions: Saccharomyces cerevisiae, MY2256, 42 h
Protocol: as §1, §2

[4] = test system: S. cerevisiae FKS1 pcr1 spores; test: drug phenotype of segregants from tetrad analysis; type: cell-based, Saccharomyces cerevisiae
Excerpt: YFK0996-11B (MATa fks1-1 pcr1) was also crossed to YFK0005 (MATalpha FKS1 PCR1). In this cross, the pcr1 and fks1-1 mutations segregate independently. In the 16 four-spore and 20 three-spore tetrads, the segregation pattern of 1 Parental Ditype: 1 Non Parental Ditype : 4 Tetratype tetrads is indicative of two unlinked genes. […] Strains MY2257 (also known as YFK1088-23B, MATa FKS1 +pcr1), MY2258 (also known as YFK1088-16D, MATalpha FKS1+pcr1), and YFK1088-02D (MATa FKS1 +pcr1) were segregants from this cross. As shown in the table below, these segregants contain the pcr1 mutation in a wild-type FKS1 background and lack plasmid pDL1 present in the original mutant.

SMILES | resistance phenotype in liquid MIC assay [1] | MIC [2] | MIC [3] | drug resistance phenotype of spores [4] | MIC ([2]; YFK0931-07B, read-out: MIC)
CCCCCCCCOc1ccc(C(=O)N[C@H]2C[C@@H](O)[C@@H](O)NC(=O)[C@@H]3[C@@H](O)[C@@H](C)CN3C(=O)[C@H]([C@@H](C)O)NC(=O)[C@H]([C@H](O)[C@@H](O)c3ccc(O)cc3)NC(=O)[C@@H]3C[C@@H](O)CN3C(=O)[C@H]([C@@H](C)O)NC2=O)cc1 [L-646,991, cilofungin] ({Benzoyl(4-octyloxy)}-[Orn(4R-OH,5R-OH)]T[Hyp][hTyr(3S-OH,4S-OH)]T[Pro(3S-OH,4S-Me)]; lactam 1-C) | resistance phenotype | – | – | – | –
CCC1C=C(C)CC(C)CC(OC)C2OC(O)(C(=O)C(=O)N3CCCCC3C(=O)OC(C(C)=CC3CCC(O)C(OC)C3)C(C)C(O)CC1=O)C(C)CC2OC (stereo not drawn) [FK520] | – | 0.06 µg/mL (≈ 0.0758 µM) | 0.06 µg/mL (≈ 0.0758 µM) | resistant | –
CO[C@H]1C[C@@H]2CC[C@@H](C)[C@@](O)(O2)C(=O)C(=O)N2CCCC[C@H]2C(=O)O[C@H]([C@H](C)C[C@@H]2CC[C@@H](O)[C@H](OC)C2)CC(=O)[C@H](C)/C=C(\C)[C@@H](O)[C@@H](OC)C(=O)[C@H](C)C[C@H](C)/C=C/C=C/C=C/1C [Rapamycin, rapamycin] | – | – | 0.007 µg/mL (≈ 0.00766 µM) | – | 0.007 µg/mL (≈ 0.00766 µM)
